Test results: patent publication US11739333B2, “Regulation of gene expression by aptamer-modulated RNase p cleavage” (MeiraGTx UK II Limited, priority 2017, dated 2023)

Experiments:
[1] = test system: luciferase target gene expression in HEK 293 cells; assay: Firefly luciferase assay of cultured cells, mascRNA inserted in 3' UTR; assay type: cell-based; settings: no ligand
Procedure: Plasmid constructs: DNA fragments containing mouse mascRNA sequence and restriction sites at each end were synthesized (IDT), and digested and cloned into a plasmid backbone Con 8 that contains CMV enhancer/promoter and human beta-globin polyadenylation sequence. All constructs were verified by DNA sequencing (Genewiz).
Firefly luciferase assay of cultured cells: 3.5×10^4 HEK 293 cells were plated in 96-well flat bottom plate the day before transfection. Plasmid DNA (500 ng) was added to a tube or a 96-well U-bottom plate. Separately, TransIT-293 reagent (Minis; 1.4 μL) was added to 50 μL opti-mem I media (Life Technologies) and allowed to sit for 5 minutes at room temperature (“RT”). Then, 50 μL of this diluted transfection reagent was added to the DNA, mixed, and incubated at RT for 20 min. Finally, 7 μL of this solution was added to a well of cells in a 96-well plate. 4 hours after transfection, medium containing transfection solution was replaced with fresh medium. 24 hours after media change, plates were removed from the incubator, and equilibrated to RT for several minutes on a lab bench, then aspirated. […] Following a 5-min incubation at RT, luminescence was measured using a Tecan machine with 500 mSec read time. The luciferase activity was expressed as mean arbitrary light unit (ALU)±S.D.

[2] = test system: luciferase target gene expression in HEK 293 cells (aptamer-modulated RNase P cleavage of mRNA); assay: Firefly luciferase assay of transfected cells treated with or without aptamer ligand; assay type: cell-based; settings: 1 mM adenine vs NaOH solvent
Procedure: Firefly luciferase assay of cultured cells: 3.5×10^4 HEK 293 cells were plated in 96-well flat bottom plate the day before transfection. Plasmid DNA (500 ng) was added to a tube or a 96-well U-bottom plate. Separately, TransIT-293 reagent (Minis; 1.4 μL) was added to 50 μL opti-mem I media (Life Technologies) and allowed to sit for 5 minutes at room temperature (“RT”). Then, 50 μL of this diluted transfection reagent was added to the DNA, mixed, and incubated at RT for 20 min. Finally, 7 μL of this solution was added to a well of cells in a 96-well plate. 4 hours after transfection, medium containing transfection solution was replaced with fresh medium. 24 hours after media change, plates were removed from the incubator, and equilibrated to RT for several minutes on a lab bench, then aspirated. Glo-lysis buffer (Promega, 100 μL, RT) was added, and the plates allowed to remain at RT for at least 5 minutes. Then, the well contents were mixed by 50 μL trituration, and 20 μL of each sample was mixed with 20 μL of bright-glo reagent (Promega) that had been diluted to 10% in glo-lysis buffer. 96 wells were spaced on an opaque white 384-well plate. Following a 5-min incubation at RT, luminescence was measured using a Tecan machine with 500 mSec read time. The luciferase activity was expressed as mean arbitrary light unit (ALU)±S.D.
Plasmid constructs: oligonucleotide fragments containing mascRNA and guanine aptamer sequences (Mandal, M, et al., Cell 113, 577-586 (2003), incorporated herein by reference) were synthesized (IDT) and cloned into a luciferase (Luci) expression construct (Con8) in the 3′ UTR region using compatible restriction sites BamHI and XhoI. All the constructs were verified by DNA sequencing (Genewiz).
Firefly luciferase assay of cultured cells: cells were transfected as described in Example 1. Four hours after transfection, medium containing transfection solution was replaced by medium with either 0.5% DMSO as solvent control or 500 μM guanosine (Sigma) as aptamer ligand. Twenty-two to twenty-four hours after treatment, a luciferase assay was performed as described in Example 1.
Plasmid construction: a DNA fragment containing sequences for the guanine aptamer xpt-G and human arginine pre-tRNA (Nashimoto M. N. et al. Long 5′ leaders inhibit removal of a 3′ trailer from a precursor tRNA by mammalian tRNA 3′ processing endoribonuclease. Nucleic Acids Research, 1999; 27(13): 2770-2776) were synthesized (IDT). The synthesized DNA fragments were digested with BamHI and XhoI restriction enzymes and cloned into the Con8 construct digested with the same restriction enzymes. Construct sequences were verified by DNA sequencing (Genewiz).
Plasmid construction: a DNA fragment containing sequences for the adenine aptamer ydhl-A (M. Mandal and R. R. Breaker, Adenine riboswitches and gene activation by disruption of a transcription terminator. Nature Structural & Molecular Biology. 2004; 11: 29-35, incorporated herein by reference) or theophylline aptamer (G. R. Zimmerman, et al. Interlocking structural motifs mediate molecular discrimination by a theophylline-binding RNA. Nature Structural Biology. 1997; 4: 644-649, incorporated herein by reference), and mascRNA sequence were synthesized (IDT). The synthesized DNA fragments were digested with BamHI and XhoI restriction enzymes and cloned into Con8 digested with the same restriction enzymes. Construct sequences were verified by DNA sequencing (Genewiz).
Four hours after transfection, the media was aspirated, and new media with NaOH (1 mM) as solvent or 1 mM adenine (Calbiochem), or 3 mM theophylline (Sigma) was added. The induction fold was expressed as the quotient of luciferase activity obtained in the presence of aptamer ligand divided by the value obtained in the absence of the aptamer ligand. […]

| Molecule | decrease in luciferase expression compared to the luciferase construct that has no mascRNA (Luci) [1] [%] | fold increase in luciferase expression with adenine [2] [fold] |
| --- | --- | --- |
| Luci-mascRNA-mlp: luciferase construct with mascRNA mutated in the T-loop from UUC to AAG, negative control (GACGCUGGUGGCUGGCACUCCUGGUUUCCAGGACGGGGAAGAAGUCCCUGCGGUGUCU) | 20 | – |
| YM: SEQ ID NO: 15; ydhl-A adenine aptamer and mascRNA in luciferase 3' UTR (nucleic acid) CCTCATAAAGGCCAAGAAGGGCGGAAAGATCGCCGTGTAAGGATCCAAGACGAGCTGTACAAGTAAAGCGGCCGTAATGTTATAACCTCAATAATATGGTTTGAGGGTGTCTACCAGGAACCGTAAAATCCTGATTAACATTACGACGCTGGTGGCTGGCACTCCTGGTTTCCAGGACGGGGTTCAAGTCCCTGCGGTGTCTTTGCTTGGATCGGCCGCGACTCTAGAGTCGACCTGCAGGCATGCAAGCTTCAGCTGCTCGAGGGCCCAGATCTAATTCACCCCACCAGTGCAGGCTGCCTATCAG | – | 3.3 |
